pIC50: −log10 of the molar value. Activity calls are given as the source filed them. No cut-off for these calls is given here.
Tests used:
[1] = Inhibition of rat FTase using farnesylpyrophosphate and dansyl-GCVLS as substrate preincubated for 5 mins measured after 15 mins by fluorescence assay
[2] = Inhibition of rat GGTase-1 using geranylgeranyl-pyrophosphate and dansyl-GCVLL as substrate preincubated for 5 mins measured after 15 mins by fluorescence assay
Rattus norvegicus [3] = species on record: Rattus norvegicus; experiment: Bisubstrate inhibition of rat FTase at 20 to 40 nM using farnesylpyrophosphate and dansyl-GCVLS as substrate by double-reciprocal plot analysis
Rattus norvegicus [4] = species on record: Rattus norvegicus; experiment: Bisubstrate inhibition of rat GGTase-1 at 20 to 40 nM using geranylgeranyl-pyrophosphate and dansyl-GCVLL as substrate by double-reciprocal plot analysis

Row | Compound | pIC50 [1] | pIC50 [2] | inhibition (Rattus norvegicus [3]) | inhibition (Rattus norvegicus [4])
1 | COc1ccc(CN2C(=O)CNC(=O)[C@@H]2CC(C)C)cc1 | 6.24 | 5.41 |  | 
2 | O=C1NCC(=O)N(Cc2ccco2)[C@H]1Cc1c[nH]cn1 | 7.01 | 6.01 |  | 
3 | C[C@H]1C(=O)NCC(=O)N1Cc1ccco1 | 5.81 | 5.28 |  | 
4 | COc1ccc(CN2C(=O)CNC(=O)[C@H]2C)cc1 | 6.21 | 5.55 |  | 
5 | COc1ccc(CN2C(=O)CNC(=O)[C@@H]2CSCc2ccccc2)cc1 | 7.35 | 6.80 |  | 
6 | O=C1NCC(=O)N(Cc2ccc(N3CCOCC3)cc2)[C@@H]1Cc1c[nH]c2ccccc12 | 6.88 | 7.06 |  | 
7 | COc1ccc(CN2C(=O)CNC(=O)[C@H]2Cc2c[nH]cn2)cc1 | 7.11 | 6.74 |  | 
8 | O=C1NCC(=O)N(Cc2ccco2)[C@@H]1Cc1c[nH]c2ccccc12 | 7.28 | 6.66 |  | 
9 | COc1ccc(C[C@@H]2C(=O)NCC(=O)N2Cc2ccco2)cc1 | 6.93 | 6.39 |  | 
10 | O=C1NCC(=O)N(Cc2ccco2)[C@H]1Cc1ccccc1 | 6.80 | 5.74 |  | 
11 | O=C1NCC(=O)N(Cc2ccc(Br)cc2)[C@@H]1Cc1c[nH]c2ccccc12 | 7.53 | 6.92 |  | 
12 | COc1c(Cl)cc(Cl)cc1CN1C(=O)CNC(=O)[C@H]1Cc1c[nH]c2ccccc12 | 7.66 | 7.11 |  | 
13 | O=C1NCC(=O)N(Cc2ccc(N3CCOCC3)cc2)[C@H]1Cc1c[nH]c2ccccc12 | 6.65 | 6.91 |  | 
14 | COc1ccc(CN2C(=O)CNC(=O)[C@H]2CC(C)C)cc1 | 6.46 | 5.92 |  | 
15 | O=C1NCC(=O)N(Cc2ccco2)[C@@H]1CSCc1ccccc1 | 7.00 | 6.12 |  | 
16 | N#Cc1ccc(CN2C(=O)CNC(=O)[C@H]2Cc2c[nH]c3ccccc23)cc1 | 7.41 | 6.89 |  | 

Row | Compound | pIC50 [1] | pIC50 [2] | inhibition (Rattus norvegicus [3]) | inhibition (Rattus norvegicus [4])
17 | CC(C)C[C@@H]1C(=O)NCC(=O)N1Cc1ccco1 | 6.38 | 5.78 |  | 
18 | COc1c(Cl)cc(Cl)cc1CN1C(=O)CNC(=O)[C@@H]1Cc1c[nH]c2ccccc12 | 7.47 | 6.66 |  | 
19 | COc1ccc(CN2C(=O)CNC(=O)[C@@H]2C)cc1 | 5.96 | 5.28 |  | 
20 | COc1ccc(CN2C(=O)CNC(=O)[C@H]2C(C)C)cc1 | 6.32 | 5.77 |  | 
21 | O=C1NCC(=O)N(Cc2ccco2)[C@@H]1Cc1ccccc1 | 6.75 | 6.21 |  | 
22 | COc1ccc(CN2C(=O)CNC(=O)[C@H]2Cc2c[nH]c3ccccc23)cc1 | 7.40 | 6.82 |  | 
23 | O=C1NCC(=O)N(Cc2ccco2)[C@H]1Cc1c[nH]c2ccccc12 | 7.14 | 6.10 |  | 
24 | O=C1NCC(=O)N(Cc2ccco2)[C@@H]1Cc1c[nH]cn1 | 7.15 | 6.46 |  | 
25 | COc1ccc(CN2C(=O)CNC(=O)[C@@H]2CCSC)cc1 | 6.72 | 6.15 |  | 
26 | COc1ccc(CN2C(=O)CNC(=O)[C@H]2Cc2ccccc2)cc1 | 6.85 | 6.34 |  | 
27 | COc1ccc(CN2C(=O)CNC(=O)[C@@H]2Cc2c[nH]c3ccccc23)cc1 | 7.23 | 6.28 |  | 
28 | O=C1NCC(=O)N(Cc2ccc(F)cc2)[C@@H]1Cc1c[nH]c2ccccc12 | 7.35 | 6.32 |  | 
29 | COc1ccc(C[C@@H]2C(=O)NCC(=O)N2Cc2ccc(OC)cc2)cc1 | 6.89 | 6.42 |  | 
30 | COc1ccc(CN2C(=O)CNC(=O)[C@@H]2Cc2c[nH]cn2)cc1 | 6.97 | 6.23 |  | 
31 | O=C1NCC(=O)N(Cc2ccc(Oc3ccc(Cl)c(Cl)c3)cc2)[C@H]1Cc1c[nH]c2ccccc12 | 7.65 | 7.03 |  | 
32 | O=C1NCC(=O)N(Cc2ccc(Cl)cc2)[C@@H]1Cc1c[nH]c2ccccc12 | 7.48 | 6.77 |  | 

Further lines, results first:

Row | pIC50 [1] | pIC50 [2] | inhibition (Rattus norvegicus [3]) | inhibition (Rattus norvegicus [4]) | Compound
33 | 6.32 | 5.41 |  |  | CC(C)C[C@H]1C(=O)NCC(=O)N1Cc1ccco1
34 | 6.01 | 5.42 |  |  | C[C@@H]1C(=O)NCC(=O)N1Cc1ccco1
35 | 6.11 | 5.42 |  |  | COc1ccc(CN2C(=O)CNC(=O)[C@@H]2C(C)C)cc1
36 | 7.58 | 7.02 |  |  | O=C1NCC(=O)N(Cc2ccc(Oc3cccc(Cl)c3)cc2)[C@H]1Cc1c[nH]c2ccccc12
37 | 7.11 | 6.11 |  |  | O=C1NCC(=O)N(Cc2ccc(F)cc2)[C@H]1Cc1c[nH]c2ccccc12
38 | 7.36 | 6.49 |  |  | N#Cc1ccc(CN2C(=O)CNC(=O)[C@@H]2Cc2c[nH]c3ccccc23)cc1
39 | 7.15 | 6.33 |  |  | COc1ccc(CN2C(=O)CNC(=O)[C@H]2CSCc2ccccc2)cc1
40 | 7.38 | 6.20 |  |  | O=C1NCC(=O)N(Cc2ccc(Br)cc2)[C@H]1Cc1c[nH]c2ccccc12
41 | 6.74 | 5.71 |  |  | COc1ccc(CN2C(=O)CNC(=O)[C@@H]2Cc2ccccc2)cc1
42 | 7.88 | 7.68 | Active | Active | O=C1NCC(=O)N(Cc2ccc(Oc3ccc(Cl)c(Cl)c3)cc2)[C@@H]1Cc1c[nH]c2ccccc12
43 | 6.73 | 6.06 |  |  | COc1ccc(C[C@H]2C(=O)NCC(=O)N2Cc2ccc(OC)cc2)cc1
44 | 6.63 | 5.98 |  |  | COc1ccc(C[C@H]2C(=O)NCC(=O)N2Cc2ccco2)cc1
45 | 6.46 | 5.72 |  |  | CC(C)[C@@H]1C(=O)NCC(=O)N1Cc1ccco1
46 | 7.38 | 6.28 |  |  | O=C1NCC(=O)N(Cc2ccc(Cl)cc2)[C@H]1Cc1c[nH]c2ccccc12
47 | 7.16 | 6.57 |  |  | O=C1NCC(=O)N(Cc2ccco2)[C@H]1CSCc1ccccc1
48 | 6.92 | 6.14 |  |  | CSCC[C@@H]1C(=O)NCC(=O)N1Cc1ccco1
49 | 7.75 | 7.49 |  |  | O=C1NCC(=O)N(Cc2ccc(Oc3cccc(Cl)c3)cc2)[C@@H]1Cc1c[nH]c2ccccc12
50 | 6.96 | 6.49 |  |  | COc1ccc(CN2C(=O)CNC(=O)[C@H]2CCSC)cc1
51 | 6.27 | 5.49 |  |  | CC(C)[C@H]1C(=O)NCC(=O)N1Cc1ccco1
52 | 6.72 | 5.72 |  |  | CSCC[C@H]1C(=O)NCC(=O)N1Cc1ccco1
